Laboratory results: patent publication EP0006061A1, “Medicinal compound consisting of a derivative of cyclopentyl aldehyde” (INSTITUT DE RECHERCHES CHIMIQUES ET BIOLOGIQUES APPLIQUEES …, priority 1978, dated 1979)

How the values were obtained:
rat femelle = assay: anti-inflammatory activity, carrageenin oedema test; assay type: in vivo; settings: dose 200 µg per rat
Excerpt: L'activité anti-inflammatoire de l'exemple 4 a été étudiée chez le rat femelle (de poids 100 g) selon le test de l'oedème à la carragéenine.Les résultats sont donnés dans le tableau IV où l'Indométacine est utilisée comme produit de référence : […]

cobayes = assay: histamine aerosol bronchospasm (time to apnoea); assay type: in vivo; settings: 0,1 mg/kg, aerosol for 10 min before histamine aerosol; controls 108 ± 18
Description: Les essais pharmaceutiques qui ont été mis en oeuvre avec les produits des exemples 1 et 4, ont été résumés ci-après : • 1°/ essais avec l'exemple 1 • a/ activité bactériostatique L' α-(2-formyl-3-méthyl-cyclopentyl)-acétal- déhyde inhibe les bactéries Gram (+) et Gram (-). Les CMI (concentration minimale inhibitrice) sont les suivantes : 0,75 mg/ml sur Staphylococcus aureus Londres, 1,2 mg/ml sur Escherichia coli, et 1,5 mg/ml sur Proteus • b/ activité antispasmodique : Les DE-50 du produit de l'exemple 1 ont été déterminés • (i) in vitro sur iléon isolé de cobaye vis à vis de l'histamine : DE - 50 = 50 γ/ml; • (ii) in vivo sur l'animal vivant selon la méthode de KONZETT & ROESLLER : DE - 50 = 2,6 mg/kg par administration i.v. • c/ activité antianaphylactique : Des cobayes mâles sont sensibilisés par deux injections de 0,5 ml d'une solution d'albumine à 2 g/1, à deux jours d'intervalle. Quatre semaines aprës,le choc anaphylactique mortel est provoqué par injection i.v. de 0,2 ml d'une solution aqueuse d'ovalbumine à 2 g/1. Les produits à tester sont administrés 30 mn avant (administration i.p.) ou en même temps (administration i.v.) que l'injection provoquant ledit choc anaphylactique. Les résultats sont donnés dans le tableau I pour le produit de l'exemple 1 et la Prométhazine en tant que produit de référence : [formula] • 2°/ essais avec le produit de l'exemple 4 (constitué par un mélange de 87 % en poids d'isomère "cis-trans" et 13 % en poids d'isomère "trans-cis). • a/ activité bactériostatigue : Le produit de l'exemple 4 inhibe les bactéries Gram (+) et Gram (-). […]

| Compound | inhibition par rapport aux témoins (rat femelle) [%] | Apparition de l'apnée (en secondes) (cobayes) [secondes] |
| --- | --- | --- |
| COc1ccc2c(c1)c(CC(=O)O)c(C)n2C(=O)c1ccc(Cl)cc1 [Indometacine, reference compound] | 57 |  |
| CC(CN1c2ccccc2Sc2ccccc21)N(C)C (centres unmarked) [Prométhazine, reference compound] |  | >600 |
